The source of these data is patent publication US8722682B2, “Sulfated benzimidazolone derivatives having mixed serotonin receptor affinity” (Sprout Pharmaceuticals, Inc., priority 2006, dated 2014).

One may read the Ki as a measure of affinity in units of concentration, obtained from inhibition or displacement.

The target in one assay is T1, 5-HT1A receptor (Homo sapiens, UniProt P08908).
T1 construct: expressed in transfected cells; host or cells: CHO-K1
T1 sequence (P08908 1-422): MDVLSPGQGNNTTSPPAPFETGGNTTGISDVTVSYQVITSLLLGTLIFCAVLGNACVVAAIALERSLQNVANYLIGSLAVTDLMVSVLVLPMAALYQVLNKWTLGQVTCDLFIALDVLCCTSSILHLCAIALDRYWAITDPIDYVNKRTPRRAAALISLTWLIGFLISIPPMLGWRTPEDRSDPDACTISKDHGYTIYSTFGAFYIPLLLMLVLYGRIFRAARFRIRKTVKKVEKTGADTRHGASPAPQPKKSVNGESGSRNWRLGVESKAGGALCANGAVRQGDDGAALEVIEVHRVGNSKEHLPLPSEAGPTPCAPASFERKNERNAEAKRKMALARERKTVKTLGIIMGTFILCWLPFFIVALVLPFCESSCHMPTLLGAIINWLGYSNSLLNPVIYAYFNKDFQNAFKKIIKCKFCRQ
The assay is described as follows: 5-HT1A receptor binding, [3H]-8-OH-DPAT displacement. Conditions: human recombinant CHO-K1 cells, [3H]-8-OH-DPAT 1.5 nM. Here is the method: (§1) Binding studies can be carried out to determine the affinity of the compounds for 5-HT1A and 5-HT2A receptors
Human recombinant CHO-K1 cells are used. Displacement experiments can be performed by incubating the cells in 50 mM Tris-HCL, pH 7.4, 0.1% ascorbic acid, 0.5 mM EDTA, 10 mM MgSo4 and in the presence of [^3H]-8-OH-DPAT (1.5 nM) at 27° C. for 60 min. Non specific binding was determined in the presence of 10 μM mertergoline.
The test compounds dissolved in DMSO, along with the positive control compound metergoline are tested over 10-log unit concentrations for their ability to compete for [^3H]8-OH-DPAT binding (May J A, et al., J Pharmacol Exp Ther. 306(1):301, 2003. Martin G R and Humphrey P P A Neuropharmacol. 33:261, 1994). […] The radioactivity is counted on a β-counter, and the data are analyzed by a nonlinear, iterative, curve-fitting computer program.
Where presented, IC50 values are determined by a non-linear, least squares regression analysis using Data Analysis Toolboxä (MDL Information Systems, San Leandro, Calif., USA). Where inhibition constants (Ki) are presented, the Ki values are calculated using the equation of Cheng and Prusoff (Cheng, Y., Prusoff, W. H., Biochem. Pharmacol. 22:3099-3108, 1973) using the observed IC50 of the tested compound, the concentration of radioligand employed in the assay, and the historical values for the Ki of the ligand).

Another assay has as its target T2, 5-HT2A receptor (Homo sapiens, UniProt P28223).
T2 construct: expressed in transfected cells; host or cells: CHO-K1
Nature of the assay: 5-HT2A receptor binding, [3H]-Ketanserin displacement. Conditions: human recombinant CHO-K1 cells, [3H]-Ketanserin 0.5 nM. Here is the method:
as §1
Human recombinant CHO-K1 cells can be used. Displacement experiments are performed by incubating the cells in 50 mM Tris-HCL, pH 7.7 in the presence of [^3H]-Ketanserin (0.5 nM) at 25° C. for 60 min. Non specific binding was determined in the presence of 1 μM Mianserin.
The test compounds, along with the positive control compound ketanserin are tested over 10-log unit concentrations for their ability to compete for [^3H]-Ketanserin (Saucier C and Albert P R. J. Neurochem. 68:1998, 1997. Bonhaus D W et al., Br J Pharmacol. 115:622, 1995). The assays are terminated by rapid vacuum filtration over glass fiber filters. The radioactivity is counted on a β-counter, and the data are analyzed by a nonlinear, iterative, curve-fitting computer program. Where presented, IC50 values are determined by a non-linear, least squares regression analysis using Data Analysis Toolboxä (MDL Information Systems, San Leandro, Calif., USA). Where inhibition constants (Ki) are presented, the Ki values are calculated using the equation of Cheng and Prusoff (Cheng, Y., Prusoff, W. H., Biochem. Pharmacol. 22:3099-3108, 1973) using the observed IC50 of the tested compound, the concentration of radioligand employed in the assay, and the historical values for the Ki of the ligand).

T2 sequence (P28223 whole entry): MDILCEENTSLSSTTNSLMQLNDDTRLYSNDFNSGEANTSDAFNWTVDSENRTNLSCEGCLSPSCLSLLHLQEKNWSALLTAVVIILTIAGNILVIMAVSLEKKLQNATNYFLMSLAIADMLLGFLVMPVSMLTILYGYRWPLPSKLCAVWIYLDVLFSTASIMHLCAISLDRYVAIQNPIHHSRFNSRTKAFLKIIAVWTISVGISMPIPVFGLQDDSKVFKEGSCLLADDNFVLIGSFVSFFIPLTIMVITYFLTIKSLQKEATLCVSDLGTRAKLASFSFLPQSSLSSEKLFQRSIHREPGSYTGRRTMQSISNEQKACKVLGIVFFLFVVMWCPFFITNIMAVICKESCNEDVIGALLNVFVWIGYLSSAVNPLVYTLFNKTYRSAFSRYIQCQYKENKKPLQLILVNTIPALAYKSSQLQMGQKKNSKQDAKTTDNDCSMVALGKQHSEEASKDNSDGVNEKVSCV

In the case of `O=c1[nH]c2ccc(OS(=O)(=O)O)cc2n1CCN1CCN(c2cccc(C(F)(F)F)c2)CC1` [I(b), {2-oxo-3-{2-[4-(3-trifluoromethyl-phenyl)-piperazin-1-yl]-ethyl}-2,3-dihydro-1H-benzimidazol-5-yl}mono sulfuric acid ester], the results for the Ki on 5-HT1A receptor and at 5-HT2A receptor were 808 nM and 207 nM, respectively.
